Laboratory results: US20120244567A1, “HUMAN EMBRYONIC STEM CELLS FOR HIGH THROUGHOUT DRUG SCREENING” (BUCK INSTITUTE FOR RESEARCH ON AGING, priority 2009, published 2012)
Structures can show the parent of a compound that is named as a salt.

Key:
Assay type in all cases: cell-based, human
hESC-derived NSCs = assay: ATP assay in hESC-derived NSCs (96-well, primary screen and retest); set-up: cytotoxicity: dose or concentration left out as unconfirmed; toxicity to NSCs (reduced ATP concentrations) / ATP levels in NSC population: unit of the concentration uncertain
Description: EBs were then cultured for additional 2-3 days in suspension in neural induction media containing DMEM/F12 with Glutamax, 1×NEAA, 1×N2 and FGF2 (20 ng/ml) prior to attachment on cell culture plates. […] To obtain a pure population of NSCs, rosettes were manually isolated and dissociated into single cells using Accutase. The NSCs population was expanded in Neurobasal media containing 1×NEAA, 1×L-Glutamine (2 mM), 1×B27, LIF and FGF2 20 ng/ml.
Media was changed every day for hESCs and every other day for NSCs and additionally changed prior to drug treatment. The cells were treated with compounds from the NINDS library diluted in […] of either ESC or NSC media to a final concentration of 2.5 mM in 0.01% DMSO. […] For all sampling, ESC and NSC plates were processed in parallel for one drug or control condition at a time.
For ATP measurements, the media was removed, cells were washed 1× in milliQ water and reconstituted in […] ATP-Lite Mammalian Lysis Buffer and shaken for 5 minutes. Two […] aliquots of lysed cells were replated onto separate 96 well plates for later protein measurements.
To identify compounds that are toxic to hESCs, hESC-derived NSCs, or both, we screened 720 FDA-approved drugs of the NINDS collection by testing the toxicity of each drug at a dose of 2.5 mM. For endpoint measurement of cell death caused by drug toxicity, we used a widely accepted ATP assay that measures changes in ATP level as an indicator of cellular response to cell death. In this assay, total ATP content per well was measured and normalized to the total cellular protein.
Three concentrations of each compound (1 mM, 2.5 mM and 10 mM) were used in the retest.

2102Ep cells = assay: Effect on immortal cell line 2102Ep; details: 48 hours after treatment, data not shown
From the text: Media was changed every day and cells were passaged every 3-4 days at a ratio of between 1:4 to 1:6.

NSCs = assay: Cell death observed in NSCs in 35-mm dishes
From the text: NSCs and dopaminergic neurons grown in 35-mm dishes were exposed to amiodarone HCl.

Compound: CCCCc1oc2ccccc2c1C(=O)c1cc(I)c(OCCN(CC)CC)c(I)c1 [Amiodarone Hydrochloride]
- ATP levels in NSC population (hESC-derived NSCs; 10 (unit uncertain), 48 h (FIG. 5)): less than 15 % of the control mean
- cytotoxicity (hESC-derived NSCs; Homo sapiens, NINDS primary screen, 48 hours, read-out: NSC ATP values below the control mean): ≥ 15%
- effect on NSC survival among dose responsive compounds (hESC-derived NSCs; retest, FIG. 2 panel B): most dramatic effect on NSC survival
- effect on 2102Ep cells (2102Ep cells): no effect
- time after drug exposure at which cell death was observed in NSCs (NSCs; 35-mm dishes): 2 h
- cell death in NSCs (NSCs; by 8 hours, 35-mm dishes): more than 90%
- cell death in similarly treated NSCs (NSCs; within one hour of drug administration): massive cell death
